Experimental data published in article PMC5617480 (Oncotarget, 2017).
Like-named read-outs stand apart in the source and are kept apart here.

Columns and labels:
HL-7702 normal cells [1] = experiment: Cytotoxicity assay (MTT assay); format: cell-based, human; conditions: for Inhibitory rates (%): HL-7702, 20 μM; for IC50: HL-7702, 24 h
Procedure: (§1) To evaluate the cytotoxicity of chiral platinum(II) complexes, HeLa, BEL-7402, MGC80-3, BEL-7404, A549, Hep-G2 and HL-7702 cells (normal cells) were treated with varying concentrations of complexes 1–6 and cisplatin (positive control, cisplatin was dissolved at a concentration of 1.0 mM in 0.154 M NaCl) for 24 h and 48 h. The cell viability of each experimental group was examined by MTT assays. […] [61, 62].
(§2) Materials 100 U/mL penicillin and 100 μg/mL streptomycin in 25 cm2 culture flasks at 37 °C humidified atmosphere with Tris, RNase A, and propidium iodide (PI) were 5% CO2. All cells to be tested in the following assays have purchased from Sigma. The antibody of mutp53, a passage number of 3-6. […]
(§3) were purchased from Abcam. Unless otherwise stated, BEL-7404, A549, and Hep-G2 cancer-cell lines and HL-spectroscopic titration experiments were carried out in 7702 normal cells) per well were seeded in triplicate in TBS (10 mM pH7.35 Tris-HCl, containing 100 mM KCl). 96-well plates and incubated for 24 h at 37 °C and 5.0% The total RNA isolation kit and the two-step RT-PCR kit CO2/95.0% air. Then graded amounts of compound were purchased from TIANGEN. DNA oligomers (highly added to the wells in 10.0 μL of FBS free culture medium polymerized stored at 4 °C; long-term storage at −20 °C) and the plates were incubated in a 5% CO2 humidified are listed in Supplementary Table 1 and were obtained from atmosphere for 24 h and 48 h. Six replica wells were used Shanghai Sangon Biological Engineering Technology & as controls. Each the cells were grew for 12.0 h before Services (Shanghai, China). All tumor cell lines (HeLa, treatment to reach 70.0% confluency and 20.0 μL of tested BEL-7402, MGC80-3, BEL-7404, A549, Hep-G2 cancer- various concentrations of compounds were added to each cell lines and normal liver cell line HL-7702) were obtained well. The final concentration of the tested complexes from the Shanghai Institute for Biological Science (China). or compounds were kept at 1.25, 2.5, 5, 10, 20 μM, Stock solutions of all the compounds (2.0 mM) were made respectively. After 24 h or 48 h of culture, 0.1 mg of in DMSO, and further dilutions to working concentrations MTT (in 20 μL of PBS) was added to each well, and cells were made with corresponding buffer. were incubated at 37 °C for 6 h. The formed formazan crystals were then dissolved in 100 μL of DMSO and the Instrumentation absorbance was read by enzyme labeling instrument with Infrared spectra were obtained on a Perkine Elmer 490/630 nm double wavelength measurement. The final FT-IR Spectrometer. Elemental analyses (C, H, N) IC50 values were calculated by the Bliss method (n = 5). were carried out on a Perkin Elmer Series II CHNS/O All tests were repeated in at least three independent trials. […]

BEL-7402 cells = experiment: Cytotoxicity assay (MTT assay); format: cell-based, human; conditions: for Inhibitory rates (%): BEL-7402, 20 μM; for IC50: BEL-7402, 24 h
Procedure: as §1, with “62]. […] Therefore, complex 6 (10 μM) was selected for cell apoptosis analysis by flow-cytometry, RT-PCR, caspase-3/9 activation assays, western blot and transfection assays in BEL-7404 cells for 24 h. In addition, this observed difference in in vitro cytotoxicity between the three complexes 4–6 could be due to the influence of the chirality of the FOA ligand [68]. […]” for “62].”
as §2, §3
(§4) 10.0 min. The cell pellet obtained was dissolved in 1.0 M
(§5) The region between 200 and 400 nm was scanned for each NaOH (1.0 mL) and diluted with 2.0% (v/v) HNO3 (5.0 sample. MTT assay was performed on M1000 microplate mL) for determining whole cell Pt content. Another set reader (Tecan Trading Co. Ltd, Shanghai, China). Cell was treated similarly, nuclear proteins, nuclear fraction, cycle and apoptosis analysis was recorded on FACS Aria cytoplasmic protein, membrane proteins and other fraction II Flow Cytometer (BD Biocsiences, San Jose, USA). were isolated as described by Chen and Schreiber et al. And the each final solution was made up to 5.0 mL
(§6) Cytotoxicity assay (MTT assay) using 2.0% (v/v) HNO3. The amount of Pt taken up by the cells was determined by ICP-MS. The instrument was […]

HeLa cells = experiment: Cytotoxicity assay (MTT assay); format: cell-based, human; conditions: for Inhibitory rates (%): 20 μM
Procedure: as §1, with “62]. […] Therefore, complex 6 (10 μM) was selected for cell apoptosis analysis by flow-cytometry, RT-PCR, caspase-3/9 activation assays, western blot and transfection assays in BEL-7404 cells for 24 h. In addition, this observed difference in in vitro cytotoxicity between the three complexes 4–6 could be due to the influence of the chirality of the FOA ligand [68]. […]” for “62].”
as §2, §3, §4, §5, §6

Hep-G2 cells = experiment: Cytotoxicity assay (MTT assay); format: cell-based, human; conditions: for Inhibitory rates (%): Hep-G2, 20 μM; for IC50: Hep-G2, 24 h
Procedure: as §1, with “62]. […] Therefore, complex 6 (10 μM) was selected for cell apoptosis analysis by flow-cytometry, RT-PCR, caspase-3/9 activation assays, western blot and transfection assays in BEL-7404 cells for 24 h. In addition, this observed difference in in vitro cytotoxicity between the three complexes 4–6 could be due to the influence of the chirality of the FOA ligand [68]. […]” for “62].”
as §2, §3, §4, §5, §6

BEL-7404 cells = experiment: Cytotoxicity assay (MTT assay); format: cell-based, human; conditions: for Inhibitory rates (%): BEL-7404, 20 μM; for IC50: BEL-7404, 24 h
Procedure: as §1, with “62]. […] Therefore, complex 6 (10 μM) was selected for cell apoptosis analysis by flow-cytometry, RT-PCR, caspase-3/9 activation assays, western blot and transfection assays in BEL-7404 cells for 24 h. In addition, this observed difference in in vitro cytotoxicity between the three complexes 4–6 could be due to the influence of the chirality of the FOA ligand [68]. […]” for “62].”
as §2, §3, §4, §5, §6

MGC80-3 cells = experiment: Cytotoxicity assay (MTT assay); format: cell-based, human; conditions: for Inhibitory rates (%): MGC80-3, 20 μM; for IC50: MGC80-3, 24 h
Procedure: as §1, with “62]. […] Therefore, complex 6 (10 μM) was selected for cell apoptosis analysis by flow-cytometry, RT-PCR, caspase-3/9 activation assays, western blot and transfection assays in BEL-7404 cells for 24 h. In addition, this observed difference in in vitro cytotoxicity between the three complexes 4–6 could be due to the influence of the chirality of the FOA ligand [68]. […]” for “62].”
as §2, §3, §4, §5, §6

A549 cells = experiment: Cytotoxicity assay (MTT assay); format: cell-based, human; conditions: for Inhibitory rates (%): A549, 20 μM; for IC50: A549, 24 h
Procedure: as §1, with “62]. […] Therefore, complex 6 (10 μM) was selected for cell apoptosis analysis by flow-cytometry, RT-PCR, caspase-3/9 activation assays, western blot and transfection assays in BEL-7404 cells for 24 h. In addition, this observed difference in in vitro cytotoxicity between the three complexes 4–6 could be due to the influence of the chirality of the FOA ligand [68]. […]” for “62].”
as §2, §3, §4, §5, §6

HL-7702 normal cells [2] = conditions: ref [1], cited from earlier work; for selectivity index factor, IC50 (normal HL-7702 cells)/IC50 (BEL-7404 tumor cells): 48 h; for IC50: HL-7702, 48 h

| SMILES | selectivity index factor, IC50 (normal HL-7702 cells)/IC50 (BEL-7404 tumor cells) (HL-7702 normal cells [1]; 24 h) | Inhibitory rates (%) (HL-7702 normal cells [1]; 24 h) | Inhibitory rates (%) (HL-7702 normal cells [1]; 48 h) | IC50 (HL-7702 normal cells [1]) [µM] | Inhibitory rates (%) (BEL-7402 cells; 24 h) | Inhibitory rates (%) (BEL-7402 cells; 48 h) | IC50 (BEL-7402 cells) [µM] | Inhibitory rates (%) (HeLa cells; 24 h) | Inhibitory rates (%) (HeLa cells; 48 h) | IC50 (HeLa cells; 24 h) [µM] | Inhibitory rates (%) (Hep-G2 cells; 24 h) | Inhibitory rates (%) (Hep-G2 cells; 48 h) | IC50 (Hep-G2 cells) [µM] | Inhibitory rates (%) (BEL-7404 cells; 24 h) | Inhibitory rates (%) (BEL-7404 cells; 48 h) | IC50 (BEL-7404 cells) [µM] | Inhibitory rates (%) (MGC80-3 cells; 24 h) | Inhibitory rates (%) (MGC80-3 cells; 48 h) | IC50 (MGC80-3 cells) [µM] | Inhibitory rates (%) (A549 cells; 24 h) | also measured |
| --- | --- | --- | --- | --- | --- | --- | --- | --- | --- | --- | --- | --- | --- | --- | --- | --- | --- | --- | --- | --- | --- |
| O=C(NC[C@@H](O)CO)c1cnc2c3c(cccc13)-c1ccccc1C2=O.[Cl-].[Cl-].[Pt+2] [ligand 2, R-(+)-FOA] | 1.4 | 25.2 ± 0.3 | 30.6 ± 2.1 | 101.8 ± 0.4 | 17.0 ± 0.6 | 22.3 ± 1.1 | 94.1 ± 0.5 | 18.9 ± 0.6 | 26.8 ± 1.2 | 87.5 ± 0.8 | 17.5 ± 0.4 | 23.6 ± 2.3 | 90.6 ± 0.3 | 25.1 ± 1.2 | 50.0 ± 0.6 | 72.3 ± 1 | 9.6 ± 0.6 | 19.6 ± 0.8 | 158.1 ± 0.6 | 28.9 ± 1.4 | Inhibitory rates (%) (A549 cells; 48 h): 47.9 ± 0.9%; IC50 (A549 cells): 67.2 ± 1.5 µM; selectivity index factor, IC50 (normal HL-7702 cells)/IC50 (BEL-7404 tumor cells) (HL-7702 normal cells [2]): > 4.9; IC50 (HL-7702 normal cells [2]): > 100 µM |
| O=C(NCC(O)CO)c1cnc2c3c(cccc13)-c1ccccc1C2=O.[Cl-].[Cl-].[Pt+2] (racemic) [ligand 1, R/S-(±)-FOA] | 3.4 | 11.0 ± 1.6 | 15.2 ± 0.6 | 141 ± 1.7 | 30.5 ± 1.4 | 38.9 ± 1.6 | 54.9 ± 1.2 | 25.6± 1.2 | 33.6 ± 1.3 | 69.3 ± 1.3 | 21.3 ± 1.9 | 27.8 ± 0.8 | 73.5 ± 2 | 35.9 ± 0.7 | 51.9 ± 2.7 | 41.2 ± 0.6 | 18.6 ± 0.3 | 24.9 ± 2.2 | 87.2 ± 0.5 | 32.6 ± 0.4 | Inhibitory rates (%) (A549 cells; 48 h): 48.4 ± 1.6%; IC50 (A549 cells): 45.8 ± 0.3 µM; selectivity index factor, IC50 (normal HL-7702 cells)/IC50 (BEL-7404 tumor cells) (HL-7702 normal cells [2]): > 5.8; IC50 (HL-7702 normal cells [2]): > 100 µM |
| O=C(NC[C@H](O)CO)c1cnc2c3c(cccc13)-c1ccccc1C2=O.[Cl-].[Cl-].[Pt+2] [ligand 3, S-(–)-FOA] | 3.5 | 23.4 ± 0.9 | 27.5 ± 1.2 | 105.3 ± 1 | 35.1 ± 1.3 | 41.8 ± 2.5 | 45.8 ± 1.4 | 31.2 ± 0.4 | 36.6 ± 1.5 | 43.2 ± 0.4 | 24.9 ± 0.8 | 29.3 ± 0.9 | 70.1 ± 0.8 | 42.8 ± 0.4 | 64.8 ± 1.3 | 30.1 ± 0.7 | 24.2 ± 0.5 | 28.2 ± 1.4 | 78.2 ± 0.7 | 37.2 ± 0.8 | Inhibitory rates (%) (A549 cells; 48 h): 51.2 ± 3.4%; IC50 (A549 cells): 36.4 ± 1 µM; selectivity index factor, IC50 (normal HL-7702 cells)/IC50 (BEL-7404 tumor cells) (HL-7702 normal cells [2]): 5.3; IC50 (HL-7702 normal cells [2]): 81.4 ± 2.7 µM |
